The source of these data is patent US8030282B2, “Motilide polymorphs” (priority 2006, dated 2011).

Series [1] is described as follows: Retention of crystallinity on heating or vacuum drying (XRPD). Format: physicochemical. The text has this: XRPD patterns were collected on a Bruker AXS C2 GADDS diffractometer using Cu Kα radiation (40 kV, 40 mA), automated XYZ stage, laser video microscope for auto-sample positioning and a HiStar 2-dimensional area detector. X-ray optics consisted of a single Göbel multilayer mirror coupled with a pinhole collimator of 0.3 mm.
The beam divergence, i.e. the effective size of the X-ray beam on the sample, was approximately 4 mm. A θ-θ continuous scan mode was employed with a sample-detector distance of 20 cm which gave an effective 2θ range of 3.2° to 29.7°. Typically the sample would be exposed to the X-ray beam for 120 seconds.

A short description of series [2]: Gravimetric vapor sorption (GVS) moisture sorption isotherm. It counts as physicochemical. The following applies: for mass gain/loss upon multiple sorption and desorption cycles / weight increase / mass uptake between 0 and 90% RH: GVS, 25° C.; for XRPD re-analysis under ambient conditions after GVS: after GVS weight uptake/loss; for weight increase / mass uptake between 0 and 90% RH: 0 to 90% RH. Here is the method: GVS data was also collected by Pharmorphix, Ltd. All samples were run on a Hiden IGASorp moisture sorption analyzer running CFRSorp software. Sample sizes were typically 10 mg. A moisture adsorption-desorption isotherm was performed as outlined below, with two scans giving one complete cycle. All samples were loaded and unloaded at typical ambient (room) humidity and temperature (40% RH, 25° C.). All samples were analyzed by XRPD after GVS analysis. The standard isotherm was performed at 25° C. at 10% RH intervals over a 0 to 90% RH range. [table]

A short description of series [3]: Aqueous solubility of polymorphs of Compound Ia. Format: physicochemical.
Series [4] can be described thus: Storage stability at 40° C. and 75% RH (XRPD). It counts as physicochemical. As to conditions: for change on storage at 40° C. and 75% RH: one week.
Series [5] can be described thus: Form stability under aqueous conditions / during solubility analysis. It counts as physicochemical.
The target of the next series is motilin receptor (Homo sapiens, UniProt O43193). As to conditions: cited from earlier work.

Converted amounts (≈) assume the structure as drawn.

motilin receptor, sequence (O43193 whole entry, species assumed): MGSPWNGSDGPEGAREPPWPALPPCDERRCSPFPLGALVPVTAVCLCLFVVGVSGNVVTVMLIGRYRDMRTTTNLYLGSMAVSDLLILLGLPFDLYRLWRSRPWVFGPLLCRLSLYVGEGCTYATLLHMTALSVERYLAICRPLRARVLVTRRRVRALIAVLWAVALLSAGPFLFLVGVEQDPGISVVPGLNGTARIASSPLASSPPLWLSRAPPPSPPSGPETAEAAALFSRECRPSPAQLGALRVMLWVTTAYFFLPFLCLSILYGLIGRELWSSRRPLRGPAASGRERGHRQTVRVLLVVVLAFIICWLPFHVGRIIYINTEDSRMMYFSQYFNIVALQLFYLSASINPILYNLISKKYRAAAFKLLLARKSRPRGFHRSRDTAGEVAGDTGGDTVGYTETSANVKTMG

With `CC[C@H]1OC(=O)[C@H](C)[C@@H](O[C@H]2C[C@@](C)(OC)[C@@H](O)[C@H](C)O2)[C@H](C)[C@@H](O[C@@H]2O[C@H](C)C[C@H](N(C)C(C)C)[C@H]2O)[C@](C)(O)C[C@@H](C)[C@H](OCC(=O)NC)[C@H](C)[C@@H](O)[C@]1(C)O` [Polymorph II], the “crystallinity during vacuum drying” value in series [1] (vacuum drying at 30° C. for 72 h) was “loses crystallinity”. Moreover, in series [2], the “mass gain/loss upon multiple sorption and desorption cycles” value is “changed drastically”; the “XRPD re-analysis under ambient conditions after GVS” value (from here on “XRPD re-analysis”) is on record as “loss of crystallinity”. The “weight loss when kept at between 5 and 0% RH” value in series [2] (between 5 and 0% RH) is 4%.

In turn, `CC[C@H]1OC(=O)[C@H](C)[C@@H](O[C@H]2C[C@@](C)(OC)[C@@H](O)[C@H](C)O2)[C@H](C)[C@@H](O[C@@H]2O[C@H](C)C[C@H](N(C)C(C)C)[C@H]2O)[C@](C)(O)C[C@@H](C)[C@H](OCC(=O)NC)[C@H](C)[C@@H](O)[C@]1(C)O` [Polymorph IV] came in with a solubility in series [3] (water) of 770 µg/mL (≈ 922 µM). In series [1] (heating up to the melt), the “XRPD pattern on heating” value is “no change in XRPD pattern”. Besides, the “change on storage at 40° C. at 75% RH” value in series [4] (10 weeks) is “Neither storage at 40 °C at 75% R^H for 10 weeks nor handling during solubility analysis produced any significant changes”. Also, in series [2], the “weight increase / mass uptake between 0 and 90% RH” value is listed as 3.5%; the “mass gain/loss upon multiple sorption and desorption cycles” value is on record as “very uniform”; the “XRPD re-analysis” value is listed as “did not lead to a change in XRPD pattern”. Besides, the “polymorph change under aqueous conditions / during solubility analysis” value in series [5] was “Neither storage at 40 °C at 75% R^H for 10 weeks nor handling during solubility analysis produced any significant changes”.

For `CC[C@H]1OC(=O)[C@H](C)[C@@H](O[C@H]2C[C@@](C)(OC)[C@@H](O)[C@H](C)O2)[C@H](C)[C@@H](O[C@@H]2O[C@H](C)C[C@H](N(C)C(C)C)[C@H]2O)[C@](C)(O)C[C@@H](C)[C@H](OCC(=O)NC)[C@H](C)[C@@H](O)[C@]1(C)O` [Polymorph I], in series [2], the “weight increase / mass uptake between 0 and 90% RH” value came to 8.5%; the “mass gain/loss upon multiple sorption and desorption cycles” value is listed as “changed drastically”. Further, the “polymorph change under aqueous conditions / during solubility analysis” value in series [5] is recorded as “converted to a second polymorph, referred to as Polymorph II”.

For `CC[C@H]1OC(=O)[C@H](C)[C@@H](O[C@H]2C[C@@](C)(OC)[C@@H](O)[C@H](C)O2)[C@H](C)[C@@H](O[C@@H]2O[C@H](C)C[C@H](N(C)C(C)C)[C@H]2O)[C@](C)(O)C[C@@H](C)[C@H](OCC(=O)NC)[C@H](C)[C@@H](O)[C@]1(C)O` [Polymorph VII], the aqueous solubility in series [3] stood at 750 µg/mL (≈ 898 µM). Further, the “change on storage at 40° C. and 75% RH” value in series [4] is on record as “lost crystallinity”. Moreover, in series [2], the “weight change by GVS analysis” value was “constant weight loss”; the “weight increase / mass uptake between 0 and 90% RH” value was 3%; the “mass gain/loss upon multiple sorption and desorption cycles” value is recorded as “changed drastically”; the “XRPD re-analysis” value is given as “loss of crystallinity”. Further, the “polymorph change under aqueous conditions / during solubility analysis” value in series [5] was “converted to a mixture of Polymorphs II and IV”.

Consider `CC[C@H]1OC(=O)[C@H](C)[C@@H](O[C@H]2C[C@@](C)(OC)[C@@H](O)[C@H](C)O2)[C@H](C)[C@@H](O[C@@H]2O[C@H](C)C[C@H](N(C)C(C)C)[C@H]2O)[C@](C)(O)C[C@@H](C)[C@H](OCC(=O)NC)[C@H](C)[C@@H](O)[C@]1(C)O` [Polymorph VI], for which the “change on storage at 40° C. at 75% RH” value in series [4] (duration not stated) is given as “converted to Polymorph IV”. The “mass gain/loss upon multiple sorption and desorption cycles” value in series [2] is “changed drastically”.

In series [3], `CC[C@H]1OC(=O)[C@H](C)[C@@H](O[C@H]2C[C@@](C)(OC)[C@@H](O)[C@H](C)O2)[C@H](C)[C@@H](O[C@@H]2O[C@H](C)C[C@H](N(C)C(C)C)[C@H]2O)[C@](C)(O)C[C@@H](C)[C@H](OCC(=O)NC)[C@H](C)[C@@H](O)[C@]1(C)O` [Polymorph V] displayed an aqueous solubility of 720 µg/mL (≈ 862 µM). The “change on storage at 40° C. and 75% RH” value in series [4] is “decreased in crystallinity”. Also, the “polymorph change under aqueous conditions / during solubility analysis” value in series [5] was “converted to Polymorph II”.

As for `CC[C@H]1OC(=O)[C@H](C)[C@@H](O[C@H]2C[C@@](C)(OC)[C@@H](O)[C@H](C)O2)[C@H](C)[C@@H](O[C@@H]2O[C@H](C)C[C@H](N(C)C)[C@H]2O)[C@](C)(O)C[C@@H](C)C(=O)[C@H](C)[C@@H](O)[C@]1(C)O` [erythromycin A (1), Erythromycin A], the motilin agonist activity entry on motilin receptor was “motilin agonist activity”.
